Data as given in patent US20080269339A1, “COMBINED USE OF EGF PATHWAY INHIBITORS AND DIFFERENTIATION PROMOTING COMPOUNDS” (priority 2007, published 2008).

System: Human keratinocytes
Test: Cornified envelope formation (terminal differentiation) in confluent human keratinocyte culture
Format: cell-based
Conditions: for keratinocyte differentiation (percent of cornified envelopes): agent alone vs vehicle control, confluent keratinocytes, 5 days (FIG. 2, FIG. 3)
Experimental: In this study, Keratinocyte Cell Culture-Neonatal foreskin kerinocytes, purchased from Lonza (Walkersville, Md., USA), were grown in keratinocyte-SFM (Gilbro-BRL, Gaithersburg, Md., USA). This complete medium consists of keratinocyte basal medium and supplements (Gibco-BRL), human combinant EGF (5 ng/mL) and bovine pituitary extract (50 μg protein/mL). The calcium concentration in this medium is 0.09 mM.
Unless indicated in the description for a particular figure set forth below, confluent fifth passage keratinocytes were used, with treatments beginning 2 days after the last addition of complete medium. The media was changed and the cells were pretreated with PD153035 (300 nM) for two hours. Media was again changed to contain PD153035 (300 nM) and epidermal growth factor (10 ng/mL) and left for 24 hours. The media was changed a final time to basal media supplemented with 1 mM CaCl2 and 0.1% bovine serum albumin with the indicated chemical additions. The cells were incubated at 37° C., 5% CO2 for 5 days before the comified envelopes were scored. The vehicle, DMSO, was used as the control for both PD153035 and TCDD.
In reference to FIG. 2, Human keratinocytes were grown to confluence and treated with vehicle of media (control), sodium butyrate, epidermal growth factor (EGF) or a combination of EGF and NAB for 5 days. Cornified envelope formation is an endpoint of terminal differentiation. The percent of comified envelopes was calculated by dividing the number of cornified envelopes by the number of cells (times 100).
In FIG. 3, Human keratinocytes were grown to confluence and treated with vehicle of dimethylsulfoxide (DMSO), 2,3,7,8-tetrachlorodibenzo-p-dioxin (TCDD), epidermal growth factor (EFG) or a combination of EGF and TCDD for 5 days. Comified envelope formation is an endpoint of terminal cell differentiation. The percent of cornified envelopes was calculated by dividing the number of cornified envelopes by the number of cells (times 100).
In FIG. 4, Human keratinocytes were grown to confluence and treated with vehicle of DMSO (−/−), sodium butyrate (NaB) alone (−/+); epidermal growth factor (EGF) alone (+/−) or a combination of EGF and NaB (+/+) with or without PD153035 for 5 days. Comified envelope formation is an endpoint of terminal cell differentiation. The average percent (n=3, +/−std dev) of cornified envelopes was calculated by dividing the number of cornified envelopes by the number of cells (times 100).
In FIG. 5, Human keratinocytes were grown to confluence and treated with vehicle of DMSO (−/−), TCDD alone (−/+), epidermal growth factor (EGF) alone (+/−) or a combination of EGF and TCDD (+/+) with or without PD153035 for 5 days. Cornified envelope formation is an endpoint of terminal cell differentiation. The average percent (n=3, +/−std dev) of comified envelopes was calculated by dividing the number of cornified envelopes by the number of cells (times 100).

COc1cc2ncnc(Nc3cccc(Br)c3)c2cc1OC [PD153035] was tested, and the “effect on sodium butyrate mediated differentiation (percent of cornified envelopes)” value (PD153035 300 nM, in the presence of EGF 10 ng/mL, 5 days, n=3 (FIG. 4)) was “increasing sodium butyrate mediated differentiation” and the “effect on TCDD-mediated differentiation (percent of cornified envelopes)” value (PD153035 300 nM, in the presence of EGF 10 ng/mL, 5 days, n=3 (FIG. 5)) was “increasing TCDD-mediated differentiation”.
Clc1cc2c(cc1Cl)Oc1cc(Cl)c(Cl)cc1O2 [TCDD, 2,3,7,8-tetrachlorodibenzo-p-dioxin] was tested, and the “keratinocyte differentiation (percent of cornified envelopes)” value was “increases in keratinocyte differentiation”.
CCCC(=O)[O-].[Na+] [sodium butyrate] was tested, and the “keratinocyte differentiation (percent of cornified envelopes)” value was “increases in keratinocyte differentiation”.
“EGF: epidermal growth factor, a growth factor supporting the proliferation of epithelial cells” was tested, and the “effect on TCDD increase in keratinocyte differentiation (percent of cornified envelopes)” value (combination of EGF and TCDD, 5 days (FIG. 3)) was “inhibited” and the “effect on sodium butyrate increase in keratinocyte differentiation (percent of cornified envelopes)” value (combination of EGF and sodium butyrate, 5 days (FIG. 2)) was “inhibited”.
